{"source": "patent US20210008012A1", "about": "“NOVEL APPLICATIONS OF DISULFIRAM AND DERIVATIVES THEREOF” (GENEHEAL BIOTECHNOLOGY CO., LTD., priority 2017, published 2021)", "system": "PAICS", "assay": "Animal experiments: inhibition of SAICAR accumulation", "format": "in vivo", "conditions": "\"can reach\"", "description": "By inhibiting the activity of PAICS, the accumulation of toxic compound […] is reduced, which proves that the compound disulfiram can effectively treat rare disease ADSL deficiency.", "data": [{"smiles": "CCN(CC)C(=S)SSC(=S)N(CC)CC", "note": "[disulfiram, Disulfiram]", "values": [{"measurement": "inhibition ratio against SAICAR accumulation", "value": 87.11, "unit": "%"}]}]}
